According to publication PMC3823594, “Conformational Changes Underlying Pore Dilation in the Cytoplasmic Domain of Mammalian Inward Rectifier K^+ Channels” (PLoS ONE, 2013):

System: Kir3.2 E236R
Assay: Two-electrode voltage clamp, ACh-dependent (m2R-dependent) K+ current activation
Type: cell-based, mouse
Conditions: Kir3.2 E236R with m2R in Xenopus oocytes; various concentrations of ACh; end of test pulse to −120 mV
Description: The mouse Kir3.2d isoform was subjected to functional analyses. The amino acid numbers correspond to the longest mouse Kir3.2 isoform. Point mutations were introduced using the QuikChange site-directed mutagenesis kit (Stratagene, La Jolla, CA), and the presence of the mutations was confirmed by direct DNA sequencing. The care of Xenopus laevis was in accordance with the guideline of the Institute of Experimental Animal Sciences, Osaka University. The protocol was approved by the Animal Experiment Committee of Osaka University. The frogs were deeply anesthetized by immersing in 0.2% tricaine methanesulfonate for 20 min at 18°C. […] The currents were recorded in the absence or presence of various concentrations of acetylcholine (ACh). […] The data are expressed as mean values ± standard error of the mean. For the quantitative estimation of ACh-dependent current responses of the wild-type (WT) and mutant channels, the current amplitudes at the end of test pulses at each ACh concentration ([ACh]) were fitted using the following equation: […]
Figure 6 Introduction of reverse charge at position 236 of Kir3.2. […] Typical current traces of the E236R mutant recorded in the presence of various concentrations of ACh are shown. […] The current amplitudes at the end of the test pulse were normalized to that recorded at -100 mV. […]

CC(=O)OCC[N+](C)(C)C [ACh, acetylcholine]
Sensitivity of whole-cell K+ current to m2R-stimulation: insensitive
